For the data set, the system named is GAN DIO-NASH mice. Description: DIO NASH model in mice (GAN diet). To be noted: for animals with fibrosis worsening / animals with improvement in lobular inflammation / animals with reversed fibrosis: animals/group; for inflammatory cells and inflammatory foci in the liver: compared to vehicle; for liver Galectin-3 (Gal3) and liver CD45: markers of inflammation. As to the method:
The DIO NASH model was performed by the contract research organization Gubra (Hørsholm, Denmark) on a fee-for-service basis. All animal experiments were conducted in accordance with Gubra’s bioethical guidelines, which are fully compliant to internationally accepted principles for the care and use of laboratory animals. The animals were checked minimum once daily for signs of abnormal behavior, abnormal locomotor activity, ataxia, or clinical signs of disease (lack of grooming, raised fur, signs of pain upon handling, loss of excessive body weight).
Male C57BL/6JRj mice (purchased from Janvier Labs, France at 5 weeks of age) were used for the study. […] Mice received the Gubra AMLN NASH (GAN; D09100310, Research Diet, US; 40% fat (primarily palm oil), 40% carbohydrate (20% fructose), and 2% cholesterol) diet for 46 weeks before start of the treatment. Prior to treatment, all animals underwent liver biopsy for histological conformation of liver disease (steatosis score ≥2 and fibrosis stage ≥1) using the non-alcoholic fatty liver disease activity scoring (NAS) and fibrosis staging system. Randomization and stratification to treatment was performed according to quantitative collagen staining (PSR). GAN DIO-NASH mice (n = 16 per group) received treatment (PO) with vehicle, OCA (30 mg/kg), or 41 (10 mg/kg, BID) for 12 weeks. Water containing 1% HPMC/Tween 80 (99:1) served as vehicle. Mice were then sacrificed by cardiac puncture under isoflurane anesthesia for histopathological and biochemical analysis.
For pre-biopsies, mice were anesthetized by inhalation anesthesia using isoflurane (2–3%). A small abdominal incision was made in the midline and the left lateral lobe of the liver was exposed. A cone-shaped wedge of liver tissue (approximately 50 mg) was excised from the distal portion of the lobe and fixated in 10% neutral buffered formalin (10%) for histology. The cut surface of the liver was instantly electrocoagulated using bipolar coagulation (ERBE VIO 100 electrosurgical unit). The liver was returned to the abdominal cavity, the abdominal wall was sutured, and the skin was closed with staplers. […] TG, TC, ALT, and AST levels were determined from blood samples collected at week 4 of treatment in heparinized tubes. Plasma was separated and stored at −80 °C until analysis. […] After termination by heart puncture, livers were collected and weighed. Specific liver samples and biopsies were dissected and processed. The liver was divided into left lateral lobe, medial lobe, right lateral lobe, and caudal lobe. The left lateral lobe was used for the pre-biopsy (not applicable at termination). The liver post biopsy (~200 mg, <0.7 × 0.5 cm) was cut 4 mm from the pre-biopsy site and with an edge. The tissue was collected in paraformaldehyde. The medial lobe was sectioned and snap-frozen in liquid nitrogen for later analysis. One piece (25 ± 5 mg) was dissected and used for TG/TC analysis. […] Liver samples were fixed in formalin, paraffin embedded, and sections were stained. For H&E staining, the slides were incubated in Mayer’s Hematoxylin (Dako), washed in tap water, stained in Eosin Y solution (Sigma-Aldrich), […], and cover-slipped. For PSR staining, the slides were incubated in Weigert’s iron hematoxylin (Sigma-Aldrich), washed in tap water, stained in PSR (Sigma-Aldrich), and washed twice in acidified water. Excess water was removed by shaking the slides, and the slides were then dehydrated in three changes of 100% ethanol, cleared in xylene, and cover-slipped. […] Briefly, after antigen retrieval and blocking of endogenous peroxidase activity, slides were incubated with primary antibody. The primary antibody was detected using a polymeric horseradish peroxidase–linker antibody conjugate. Next, the primary antibody was visualized with 3,3′diaminobenzidine as chromogen. Finally, sections were counterstained in hematoxylin and cover-slipped. Samples were scored for NAS following the criteria outlined in[37].

[1] abbreviates: 41 10 mg/kg b.i.d., OCA 30 mg/kg.
Setting [2] is: 12 weeks of treatment, 41 10 mg/kg b.i.d., OCA 30 mg/kg.
Setting [3] is: 12 weeks, 41 10 mg/kg b.i.d., OCA 30 mg/kg.

`CC[C@H]1[C@@H](O)[C@@H]2[C@H](CC[C@]3(C)[C@@H]([C@H](C)CCC(=O)O)CC[C@@H]23)[C@@]2(C)CC[C@@H](O)C[C@@H]12` [OCA, 6α-ethylchenodeoxycholic acid, reference compound]: the “plasma biochemical parameters after 4 weeks of treatment” value under setting [1] is on record as “reduced total cholesterol (TC) plasma levels”. The “plasma ALT, AST and triglycerides (TG) at termination” value under setting [2] is reported as “not different between groups”. Also, the “plasma total cholesterol (TC) at termination” value (12 weeks of treatment, OCA 30 mg/kg) is “reduced TC levels”. Under setting [3], the “liver weight, liver TG and liver TC content” value was “lowered liver weight, liver TG, and liver TC”; the “steatosis, hepatic fat content” value was “strongly reduced hepatic fat content and steatosis score”; the “animals with fibrosis worsening” value is recorded as 4/15; the “animals with improvement in lobular inflammation” value is recorded as 8/15. Moreover, the “animals with reversed fibrosis” value under setting [3] is 2/15. The “animals not completing the study” value (OCA 30 mg/kg, one animal) was “found dead during the second week of the treatment phase”. Moreover, where the note is “12 weeks”, the “inflammatory cells and inflammatory foci in the liver” value was “decreased the number of inflammatory cells and inflammatory foci”; the “liver Galectin-3 (Gal3) and liver CD45” value was “reduced by both treatments”.
`CC(C)(C)c1ccc(C(=O)Nc2cccc(CCC(=O)O)c2)c(NC(=O)c2ccc(-c3ccco3)cc2)c1` [compound 41, 3-(3-[4-{tert-Butyl}-2-{4-(2-furyl)}benzamido]phenyl)propanoic acid]: the “plasma biochemical parameters after 4 weeks of treatment” value under setting [1] was “not significantly different between the groups”. For the same compound, the “plasma ALT, AST and triglycerides (TG) at termination” value under setting [2] is “not different between groups”. Under setting [3], the “liver weight, liver TG and liver TC content” value is reported as “did not differ from vehicle-treated mice”; the “steatosis, hepatic fat content” value was “no pronounced effect on steatosis”; the “animals with fibrosis worsening” value is listed as 1/16; the “animals with improvement in lobular inflammation” value is on record as 5/16. Also, the “animals with reversed fibrosis” value under setting [3] was 6/16. Under “12 weeks, 41 10 mg/kg b.i.d., vs. OCA or vehicle”, the “food intake and body weight” value was “no difference in food intake and body weight”. Besides, the “liver picrosirius red (PSR), pre vs. post treatment” value (after the treatment period, 41 10 mg/kg b.i.d.) is given as “significant reduction of liver picrosirius red (PSR)”. The “fibrosis markers PSR, Col1a1 and α-SMA” value (compared to vehicle-treated animals, 12 weeks) is given as “decreased”. Moreover, for the setting “12 weeks”, the “inflammatory cells and inflammatory foci in the liver” value is “decreased the number of inflammatory cells and inflammatory foci”; the “liver Galectin-3 (Gal3) and liver CD45” value is “reduced by both treatments”.

The values above are taken from paper PMC9814779, “A triple farnesoid X receptor and peroxisome proliferator-activated receptor α/δ activator reverses hepatic fibrosis in diet-induced NASH in mice” (Communications Chemistry, 2020).
